Data set [1] deals with T1, human neutrophil elastase (Homo sapiens (Human), UniProt P08246). Description: Elastase inhibition assay, purified human neutrophil elastase. In kind it is biochemical. Particulars: for LipE: Purified NHE; for IC50: purified HNE, read-out: IC50. The method, then: Serially diluted compounds in DMSO were dispensed into a 384-well black opaque plate by Echo dispenser. 0.1 μg/mL human neutrophil elastase (EPC, Catalog# SE563, Owensville, Ms.) or human sputum diluted with assay buffer (100 mM HEPES, 500 mM NaCl, 0.02% Tween 20) was added into the 384-well plate, and was incubated with different compounds at different concentrations for 30 minutes at room temperature. The final concentration of DMSO in the reaction was 0.1%. […] Slope of fluorescence intensity vs. time representing the Vmax of enzyme activity was calculated with MARS software. % relative inhibition was calculated as: […]
T1 sequence (P08246 30-247): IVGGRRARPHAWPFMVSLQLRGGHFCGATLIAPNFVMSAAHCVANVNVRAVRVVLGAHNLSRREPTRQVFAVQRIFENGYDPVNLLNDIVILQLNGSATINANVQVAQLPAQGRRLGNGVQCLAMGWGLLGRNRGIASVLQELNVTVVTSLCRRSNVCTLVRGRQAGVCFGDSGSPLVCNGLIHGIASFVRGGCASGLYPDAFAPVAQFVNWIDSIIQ
(§1) IC50 was calculated based on the % relative inhibition curve using log(agonist) vs. response (three parameters) method with Prism software. All experiments were performed in triplicate for at least three independent times.

Data set [2] deals with T1, human neutrophil elastase. The description is as above. In kind it is biochemical. The note with it: purified HNE.
The nature of the next data set: in vitro. Particulars: human. The method, then: Digoxin, fenoterol, and propranol were used as standards respectively. Transport Method:
The transport buffer used in the study was HBSS with 10 mM HEPES at pH 7.40±0.05. Compounds were tested at 2 μM bi-directionally in duplicates. Digoxin was tested at […] bi-directionally in a duplicate, while fenoterol and propranolol were tested at 2 μM in A(apical) to B (basolateral) direction in duplicates. The final DMSO concentration was adjusted to less than 1%. The plate was incubated for 2 hours in a CO2 incubator at 37±1° C., with 5% CO2 at saturated humidity without shaking. All samples, after mixing with acetonitrile containing internal standard, were centrifuged at 4000 rpm for 20 min. Subsequently,100 μL supernatant solution was diluted with 100 μL distilled water for LC/MS/MS analysis. Concentrations of test and control compounds in starting solution, donor solution, and receiver solution were quantified by LC/MS/MS methodologies, using peak area ratio of analyte/internal standard. After transport assay, lucifer yellow rejection assay was applied to determine the Caco-2 cell monolayer integrity.
Data analysis: The apparent permeability coefficient Papp (cm/s) was calculated using the equation:
The efflux ratio was calculated using the equation: Efflux ratio=Papp(BA)/Papp(AB)
Percent recovery was calculated using the equation: % Recovery=100×[(Vr·Cr)+(Vd·Cd)]/(Vd·C0) Where Vd is the volume in the donor chambers (0.075 mL on the apical side, 0.25 mL on the basolateral side); Cd and Cr are the final concentrations of transport compound in donor and receiver chambers, respectively.

Data set [3] concerns the target elastase in CF patient sputum (Homo sapiens (Human), UniProt P08246). The experiment in a line: Elastase inhibition assay in CF patient sputum. In kind it is biochemical. The note with it: for IC50 / LipE: CF sputum; for inhibitory activity in patient sputum versus purified HNE (in words): sputum samples of CF and COPD patients. The method, then: Serially diluted compounds in DMSO were dispensed into a 384-well black opaque plate by Echo dispenser. 0.1 μg/mL human neutrophil elastase (EPC, Catalog# SE563, Owensville, Ms.) or human sputum diluted with assay buffer (100 mM HEPES, 500 mM NaCl, 0.02% Tween 20) was added into the 384-well plate, and was incubated with different compounds at different concentrations for 30 minutes at room temperature. The final concentration of DMSO in the reaction was 0.1%. Elastase substrate MeOSuc-AAPV-AMC (Bachem, Catalog #I-1270, Torrance, CA) of 100 μM final concentration was then added into the reaction system just before enzyme kinetics were read on PheraSTAR plate reader at excitation of 380 nm and emission of 460 nm with a 3-minutes interval for 30 minutes in total. Slope of fluorescence intensity vs. time representing the Vmax of enzyme activity was calculated with MARS software. % relative inhibition was calculated as: […]
as §1
Human sputum was purchased from Discovery Life Sciences (Los Osos, CA). Human sputum was diluted 1:10 in volume with assay buffer (100 mM HEPES, 500 mM NaCl, 0.02% Tween 20) followed by vigorous vortexing. The 1:10 diluted human sputum was further diluted into 1:30, 1:90, 1:270, 1:810, and 1:2430. The elastase concentration was determined by elastase inhibition assay as described above. Specifically, a series of standards of human neutrophil elastase (starting at 2 μg/mL and further diluted 1:2 in volume) were prepared in the assay buffer. The samples and standards were plated in a 384-well black solid bottom plate; the substrate MeOSuc-AAPV-AMC of 100 μM final concentration was then added into the reaction system just before enzyme kinetics were read on PheraSTAR plate reader as mentioned above. The slope of enzymatic kinetic reading was calculated by MARS software. The elastase levels of the human sputum were calculated based on the standard curve.

Data set [4] has as its target T1, human neutrophil elastase. The experiment in a line: Time dependence of elastase inhibition. In kind it is biochemical. The method, then:
The procedure for the elastase inhibition assay was followed with slight modifications. 0.1 μg/mL human neutrophil elastase was incubated with a range of concentrations of inhibitors for 5, 15, 30 and 60 minutes before substrate MeOSuc-AAPV-AMC of 100 μM final concentration was added. Enzyme kinetics were read on PheraSTAR plate reader and IC50 was calculated with the method described above.

Setting [5] is: 5 min incubation with inhibitor.
Where [6] appears, read: 15 min incubation with inhibitor.
[7] abbreviates: 30 min incubation with inhibitor.
Setting [8] is: 60 min incubation with inhibitor.

Like-named read-outs stand apart in the source and are kept apart here.

Chain of elastase in CF patient sputum (P08246 30-267): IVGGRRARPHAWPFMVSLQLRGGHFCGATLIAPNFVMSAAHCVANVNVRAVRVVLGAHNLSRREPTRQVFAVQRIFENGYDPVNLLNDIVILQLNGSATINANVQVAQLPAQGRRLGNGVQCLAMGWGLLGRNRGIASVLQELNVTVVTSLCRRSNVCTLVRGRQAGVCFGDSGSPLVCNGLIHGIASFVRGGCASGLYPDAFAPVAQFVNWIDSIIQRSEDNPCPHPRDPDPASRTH

What is called IC50 is the midpoint of a concentration-inhibition curve. For orientation: Ki means the equilibrium dissociation constant of an inhibitor or competing ligand from its target. High values mean weaker binding, low ones tighter binding. As a reminder, the Papp A→B is how fast a substance crosses the layer from the apical side. Low readings indicate slow passage, high ones fast passage. Broadly, the Papp B→A is the apparent permeability from the basolateral to the apical side of a cell layer. What is called efflux ratio is the permeability from basolateral to apical divided by that in the opposite direction, in the common usage. On to `CC(C)[C@H](NC(=O)[C@@H]1CCCN1C(=O)[C@@H](NC(=O)c1ccc(C(=O)NS(=O)(=O)c2ccc(Cl)cc2)cc1)C(C)C)B(O)O` [Compound 51, (1-((S)-1-((4-(((4-chlorophenyl)sulfonyl)carbamoyl)benzoyl)-L-valyl)pyrrolidine-2-carboxamido)-2-methylpropyl)boronic acid], for which, in data set [1], the “inhibitory activity against HNE (in words)” value is “substantially enhanced potency”, the LipE came to 7.33 and the IC50 is 0.03 nM. For the same compound, in data set [1] (listed as mCBK 320), the “inhibitory activity against HNE (in words)” value is on record as “highly potent”. Moreover, the Ki in data set [2] came out at 0.034 nM. In the data set “in vitro” (Caco-2, pH 7.4), the Papp A→B at 120 min, 2 μM is < 0.16 ×10⁻⁶ cm/s; the Papp A→B at 2 h, 2 μM was < 0.08 ×10⁻⁶ cm/s; the basolateral-to-apical permeability (Papp B→A) at 120 min, 2 μM is 0.61 ×10⁻⁶ cm/s; the apparent permeability from basolateral to apical (Papp B→A) at 2 h, 2 μM is < 0.12 ×10⁻⁶ cm/s. The efflux ratio at 2 h, 2 μM in the data set “in vitro” (Caco-2, pH 7.4) is > 3.91. For the same compound, the recovery at 2 h, 2 μM in “in vitro” (Caco-2, pH 7.4, Mean Recovery % A to B) was < 88.2%. Besides, the recovery at 2 h, 2 μM in “in vitro” (Caco-2, pH 7.4, Mean Recovery % B to A) was 99.1%. Besides, in data set [3], the IC50 was 0.096 ± 0.002 nM, the LipE is 6.83 and the “inhibitory activity in patient sputum versus purified HNE (in words)” value is “retained much of their inhibitory activities”. This compound also returned an IC50 in data set [4] (setting [5]) of 0.027 nM. This compound displayed a half-maximal inhibitory concentration (IC50) in data set [4] (setting [6]) of 0.03 nM. The same compound gave an IC50 in data set [4] (setting [7]) of 0.037 nM. The compound also had an IC50 in data set [4] (setting [8]) of 0.026 nM.
For the compound `CC(C)[C@H](NC(=O)[C@@H]1CCCN1C(=O)[C@@H](NC(=O)c1ccc(C(=O)NCC(=O)O)cc1)C(C)C)B(O)O` [Compound 52, (4-(((2S)-1-((2S)-2-((1-borono-2-methylpropyl)carbamoyl)pyrrolidin-1-yl)-3-methyl-1-oxobutan-2-yl)carbamoyl)benzoyl)glycine], the LipE in data set [1] is recorded as 10.1; in data set [3], 9.62. Moreover, the IC50 in data set [1] came to 0.015 nM; in data set [3], 0.043 ± 0.002 nM; in data set [4] (setting [5]) it was 0.004 nM; in data set [4] (setting [6]), 0.0047 nM; in data set [4] (setting [7]), 0.0042 nM; in data set [4] (setting [8]) it was 0.0042 nM. The compound further had a Ki in data set [2] of 0.0037 nM. Besides, in data set [3], the “inhibitory activity in patient sputum versus purified HNE (in words)” value is listed as “retained much of their inhibitory activities”. Moreover, the “change of IC50 with increasing incubation times (in words)” value in data set [4] (between 5-60 minutes) is recorded as “remain unchanged”.

The values above are taken from patent publication US12415819B2, “Cu- and Ni-catalyzed decarboxylative borylation reactions” (The Scripps Research Institute, priority 2017, dated 2025).
